Data on 9 compounds can be found in publication PMC5064022, “KCNE1 induces fenestration in the Kv7.1/KCNE1 channel complex that allows for highly specific pharmacological targeting” (Nature Communications, 2016).

Assay type in all cases: cell-based
In assay [1] the target is T1, Kv7.1/KCNE1 (Homo sapiens, UniProt P15382+P51787). The experiment in a line: Two electrode voltage clamp of Kv7.1/KCNE1 currents in Xenopus oocytes. Conditions: 10 µM; percent change in current amplitude at end of pulse to +40 mV. How it is done:
Template cDNAs (wildtype or mutant human Kv7.1 in pSGEM, wildtype human KCNE1 in pSP64) were linearized with a suitable restriction enzyme (Nhe I/pSGEM, Eco RI/pSP64). cRNA was synthesized from 1 μg linearized cDNA by in vitro transcription (mMessage mMachine T7 or SP6 kit, Ambion, Life Technologies Darmstadt, Germany). cRNA concentrations were determined by photometry (Nanodrop, Peqlab, Erlangen, Germany) and cRNA quality was checked by agarose gel electrophoresis.
Oocytes were commercially obtained from EcoCyte Bioscience (Castrop-Rauxel, Germany). Injection of stage 4 or 5 oocytes was performed using a nanoliter injector 2000 (WPI, Berlin, Germany). For standard pharmacological measurements, each oocyte was injected with 5 ng Kv7.1 cRNA alone or with 1 ng KCNE1 cRNA. To investigate the influence of KCNE1 on AC-1 sensitivity of Kv7.1 tetramers, 5 ng Kv7.1 cRNA was injected with different amounts of KCNE1 cRNA (0 ng, 0.005 ng, 0.05 ng, 0.5 ng and 5 ng). Injected oocytes were maintained in an incubator at 17 °C for 4–5 days in standard Barth solution (EcoCyte Bioscience, Castrop-Rauxel, Germany) supplemented with 90 μg ml^−1 theophylline, 63 μg ml^−1 penicillin, 40 μg ml^−1 streptomycin, and 100 μg ml^−1 gentamycin until used for two electrode voltage clamp (TEVC) measurements.
TEVC measurements were performed using a TurboTec-10CD amplifier (npi Electronic, Tamm, Germany) and an ITC-16 AD/DA-interface (Instrutech Corporation, Port Washington, New York, USA). Pulse and PulseFit software (HEKA, Lambrecht/Pfalz, Germany) was used for data acquisition and analysis. During TEVC recordings, oocytes were constantly perfused with control solution (ND96, containing in mM: 96 NaCl, 4 KCl, 1.8 CaCl2, 1 MgCl2, 5 mM HEPES, pH 7.6 supplemented 0.1–0.3% DMSO). AC solutions were freshly prepared in ND96 from a 10 mM DMSO stock solution. Glass capillaries were pulled to a fine point to produce current and voltage electrodes that were back-filled with 3 M KCl. When filled with this solution, electrode resistances ranged from 0.5–1.5 MΩ. Different voltage pulse protocols were used as follows: (1) To study the inhibitory effect of different AC derivatives, Kv7.1/KCNE1 currents were elicited by repetitive 7 s pulses to +40 mV applied every 30 s from a holding potential of −80 mV. (2) To analyse the voltage dependence of channel activation, currents were elicited by 10 s pulses to test voltages between −100 and +60 mV, applied in 20 mV increments from a holding potential of −80 mV. Tail currents were recorded at −120 mV. For control we always expressed KCNE1 alone along mutant channels and mutant currents were only taken into account when it reached at least 2.5- to 3-fold the size of the background Xenopus-Kv7.1/hKCNE1 currents.
Electrophysiological data were analysed using PulseFit software (HEKA, Lambrecht/Pfalz, Germany) and GraphPad Prism (GraphPad Software, Inc., La Jolla, California, USA). Channel inhibition was determined as reduction of whole cell current amplitude at the end of a 7 s test pulse to +40 mV. The concentration of compound that caused half-maximal inhibition (IC50) were determined using the Hill equation: Idrug/Imax=1/(1+[C/IC50]^H), where Idrug is the current amplitude in the presence of the drug, Imax is the current amplitude before drug application, C is the drug concentration and H is the Hill coefficient.
For orientation: In two-electrode clamp one electrode senses voltage and the other passes current.

In another assay the test system is homomeric Kv7.1 channels. Kind of assay: AC-10 on homomeric Kv7.1 channels.
Assay [2] addresses T1, Kv7.1/KCNE1. Kind of assay: Current inhibition in CHO cells stably expressing Kv7.1/KCNE1. The protocol: Figure 5 PAL-based approach to identify AC binding site. (a) Schematic view of the PAL-based approach to investigate the binding site of AC-1. (b) Concentration-response curve for AC-10, the UV-active diazirine derivate of AC-1. The inhibitory effect of AC-10 was determined in CHO cells stably expressing Kv7.1/KCNE1. Inhibition was determined as percent change in current amplitude at the end of the depolarizing test pulse to +40 mV (±s.e.m.). (c) A new cDNA-construct (Kv7.1myc-2A-KCNE1myc in pXOOM) allows for functional expression of myc-tagged Kv7.1 and KCNE1 in HEK293T cells. In this construct, cDNAs of Kv7.1 and KCNE1 are linked via the T2A peptide sequence, which mediates co-translational protein cleavage. (d) Western blot analysis of affinity purified Kv7.1 and KCNE1 proteins. Kv7.1myc was purified using myc-agarose beads KCNE1 was purified using anti-KCNE1 coupled protein-A-sepharose beads (right). In both western blots, ‘+' indicates transfected cells, ‘−' indicates non-transfected control cells. Antibodies used for affinity purification are detected in ‘+' and ‘−'. […] It should be noted, that KCNE1, as a myc-tagged protein, should also be purified using the myc-agarose beads. […] Thus, KCNE1 expression was instead proven using the KCNE1 antibody. (e) Functional expression of Kv7.1myc-2A-KCNE1myc in HEK293T cells (scale bars indicate 1 nA, 1 s).

A further assay has as its system Kv7.1/KCNE1 channels. Kind of assay: Reversibility of AC-10 current inhibition by washout, with or without UV irradiation.

`Cc1cc(Cl)ccc1OC(C)(C)C(=O)NC1C2CC3CC1CC(NS(C)(=O)=O)(C3)C2` (stereo not shown) [AC-2] registered an inhibition at 10 µM at Kv7.1/KCNE1 [1] of 86.8 ± 3%. In the case of `CC(C)(Oc1cccc(C(F)(F)F)c1)C(=O)NC1C2CC3CC1CC(NS(C)(=O)=O)(C3)C2` (stereo not shown) [AC-3], at 10 µM the inhibition against Kv7.1/KCNE1 [1] was 73.7 ± 2.9%. The same measure, in the same setting: next, `Cc1cc(Cl)ccc1OC(C)(C)C(=O)NC1[C@@H]2CC3C[C@H]1CC(N)(C3)C2` (stereo partly shown) [AC-4, N-[(1 R,3 S)-5-amino-2-adamantyl]-2-(4-chloro-2-methyl-phenoxy)-2-methyl-propanamide]: 4.2 ± 6.1%; `Cc1cc(Cl)ccc1OC(C)(C)C(=O)NC1C2CC3CC1CC(O)(C3)C2` (stereo not shown) [AC-5]: 40.9 ± 1.4%. Compound `Cc1cc(Cl)ccc1OC(C)(C)C(=O)NC1C2CC3CC1CC(C(=O)O)(C3)C2` (stereo not shown) [AC-6] had an inhibition at 10 µM on Kv7.1/KCNE1 [1] of 64.6 ± 6.6%. Take `Cc1cc(Cl)ccc1OC(C)(C)C(=O)NC1C2CC3CC1CC(NS(=O)(=O)N(C)C)(C3)C2` (stereo not shown) [AC-7]: the inhibition at 10 µM against Kv7.1/KCNE1 [1] was determined as 38 ± 4.4%.

With `CCOC(=O)NC12CC3CC(C1)C(NC(=O)C(C)(C)Oc1ccc(Cl)cc1C)C(C3)C2` (stereo not shown) [AC-8], the inhibition at 10 µM at Kv7.1/KCNE1 [1] is 74.5 ± 6.2%.

In turn, `Cc1cc(Cl)ccc1OC(C)(C)C(=O)NC1C2CC3CC1CC(NC(=O)CC(C)C)(C3)C2` (stereo not shown) [AC-9] had an inhibition at 10 µM against Kv7.1/KCNE1 [1] of 78.6 ± 3.3%. For the compound `Cc1cc(Cl)ccc1OC(C)(C)C(=O)NC1[C@@H]2CC3C[C@H]1CC(NC(=O)CCC1(C)N=N1)(C3)C2` (stereo partly shown) [AC-10, 2-(4-chloro-2-methyl-phenoxy)-2-methyl-N-[(1 R,3 S)-5-[3-(3-methyldiazirin-3-yl)propanoylamino]-2-adamantyl]propanamide], in the assay with homomeric Kv7.1 channels, the “inhibition of homomeric Kv7.1 channels” value is “did not inhibit”. The compound further gave a Hill-coeff. at Kv7.1/KCNE1 [2] of 1.7. On Kv7.1/KCNE1 [2] (+40 mV), this compound came in with an IC50 of 16 nM. Moreover, the “inhibition after 38 min washout” value in the assay with Kv7.1/KCNE1 channels (after UV irradiation) was determined as 75%; with Kv7.1/KCNE1 channels (non UV-activated), 40%.

As a reminder, the inhibition is the change of the read-out against control, counted positive when it falls. A lower inhibition goes with a response near the control. Usually IC50 stands for the concentration that inhibits the measured activity by half. Low readings indicate higher potency, high ones lower potency.
